Reference: the supplement of paper PMC11451515

Legend:
Experiment in all cases: AUC of viability dose-response curve (% viability x log10 dose units); higher = less sensitive
Settings in all cases: 48 h
NOMO1 = system: NOMO1
Method in brief: (§1)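 Seeding of medium-adapted leukemia cells was at 500 or 1000 cells/well in 1536-well plates, followed by 48 h at 37°C with library compounds in DMSO at 11 threefold doses from 47 μM to 0.79 nM. CellTiter-Glo One luminescence was normalised per plate to DMSO and cell-free wells and fitted as a four-parameter log-logistic function of log10 dose. Area under the curve was integrated by trapezoidal rule, with curves exceeding full viability scaled and curves failing quality control removed.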

P12-Ichikawa = system: P12-Ichikawa
Method in brief: as §1

SEM cells = system: SEM cells
Method in brief: as §1

[1] = RPMI 5 mM glucose + 10% dialyzed FBS

| Compound | AUC of viability dose-response curve (NOMO1; HPLM + 10% dialyzed FBS) | AUC of viability dose-response curve (NOMO1; RPMI 5 mM glucose + 10% FBS) | AUC of viability dose-response curve (NOMO1; [1]) | AUC of viability dose-response curve (P12-Ichikawa; HPLM + 10% dialyzed FBS) | AUC of viability dose-response curve (P12-Ichikawa; RPMI 5 mM glucose + 10% FBS) | AUC of viability dose-response curve (P12-Ichikawa; [1]) | AUC of viability dose-response curve (SEM cells; HPLM + 10% dialyzed FBS) | AUC of viability dose-response curve (SEM cells; RPMI 5 mM glucose + 10% FBS) | AUC of viability dose-response curve (SEM cells; [1]) |
| --- | --- | --- | --- | --- | --- | --- | --- | --- | --- |
| Cc1nc2c([nH]1)-c1ccccc1N(C(=O)c1ccc(NC(=O)c3ccccc3-c3ccccc3)cc1)CC2 | 470 | 444 | 468 | 466 | 467 | 471 | 451 | 457 | 449 |
| COC1=CC=C2C(=CC=NC2=C1)OC3=CC=C(NC(=O)\C4=C(C)\N(CC(C)(C)O)N(C4=O)C5=CC=CC=C5)C=C3F | 459 | 468 | 467 | 472 | 468 | 469 | 404 | 379 | 365 |
| CC(=O)SCC(Cc1ccccc1)C(=O)NCC(=O)OCc1ccccc1 (centres undefined) | 390 | 358 | 351 | 439 | 445 | 418 | 451 | 443 | 442 |
| CCOP(=O)(OCC)C(C)NC(=O)N(CCCl)N=O (centres undefined) | 441 | 402 | 466 | 431 | 453 | 436 | 470 | 447 | 461 |
| CCOC(=O)c1ccc(C#Cc2ccc3c(c2)C(C)(C)CCS3)nc1 | 436 | 467 | 450 | 470 | 469 | 475 | 472 | 477 | 446 |
| COc1cc2ncnc(Nc3ccc(F)c(Cl)c3)c2cc1OCCCN1CCOCC1 | 425 | 452 | 443 | 446 | 446 | 463 | 408 | 419 | 425 |
| CC(C)(O)CNc1nc(Nc2ccnc(C(F)(F)F)c2)nc(-c2cccc(C(F)(F)F)n2)n1 | 442 | 409 | 418 | 371 | 369 | 381 | 408 | 363 | 382 |
| COc1cc2nc(-c3ccc(N4CCN(C)CC4)cc3)nc(NCCN3CCOCC3)c2cc1OC | 300 | 336 | 302 | 340 | 350 | 345 | 248 | 290 | 271 |
| N/C(=N\C(=O)c1nc(Cl)c(N)nc1N)NCc1ccccc1 | 448 | 405 | 447 | 465 | 449 | 436 | 449 | 407 | 436 |
| CC(C)[C@H](CO)Nc1nc(Nc2ccc(C(=O)O)c(Cl)c2)c2ncn(C(C)C)c2n1 | 428 | 445 | 462 | 432 | 414 | 425 | 428 | 412 | 462 |
| COc1cc(/C=C/C(=O)CC(=O)/C=C/c2ccc(O)c(OC)c2)ccc1O | 419 | 440 | 441 | 416 | 431 | 433 | 406 | 409 | 417 |
| COc1ccc(CCC(=O)Nc2nc3ccc(Cl)cc3s2)cc1OC | 454 | 458 | 455 | 466 | 472 | 462 | 463 | 461 | 472 |
| c1ccc2c(Oc3nc(Nc4ccc(N5CCOCC5)cc4)c4ncn(C5CCCCC5)c4n3)cccc2c1 | 439 | 440 | 466 | 451 | 462 | 466 | 462 | 452 | 458 |
| CC(C)c1ccc2oc3nc(N)c(C(=O)O)cc3c(=O)c2c1 | 469 | 470 | 472 | 467 | 470 | 474 | 466 | 449 | 462 |
| NC\1=N\C(=O)N(\C=N1)[C@H]2C[C@H](O)[C@@H](CO)O2 | 375 | 402 | 417 | 382 | 368 | 378 | 362 | 327 | 309 |
| CC(Oc1ccc(O)cc1)(P(=O)(O)O)P(=O)(O)O | 415 | 399 | 405 | 434 | 401 | 418 | 427 | 420 | 421 |
| C[C@@H]1CN(CC(=O)N2CC(C)(C)c3ncc(Cc4ccc(F)cc4)cc32)[C@@H](CN2CCOC[C@H]2C)CN1 | 442 | 456 | 459 | 463 | 449 | 477 | 448 | 402 | 465 |
| Cc1cnc(Nc2ccc(OCCN3CCCC3)cc2)nc1Nc1cccc([S+](=O)([O-])NC(C)(C)C)c1 | 477 | 470 | 473 | 469 | 471 | 468 | 427 | 458 | 447 |
| COC(=O)N[C@H](C(=O)N[C@@H](Cc1ccccc1)[C@@H](O)CN(Cc1ccc(-c2ccccn2)cc1)NC(=O)[C@@H](NC(=O)OC)C(C)(C)C)C(C)(C)C | 388 | 470 | 453 | 455 | 467 | 451 | 464 | 457 | 469 |
| N#Cc1c(C2CCNCC2)cc(-c2c(O)cccc2OCC2CC2)nc1N | 455 | 450 | 447 | 453 | 430 | 446 | 441 | 446 | 435 |
| COc1ccc(-c2nc3cc(C4=NNC(=O)CC4C)ccc3[nH]2)cc1 (centres undefined) | 445 | 459 | 461 | 473 | 465 | 470 | 467 | 462 | 465 |
| Nc1ccc([S+](=O)([O-])Nc2ccccn2)cc1 | 470 | 467 | 464 | 467 | 439 | 445 | 438 | 468 | 448 |
| Cn1c(=O)c2c(ncn2CC(O)CO)n(C)c1=O (centres undefined) | 470 | 462 | 455 | 435 | 449 | 460 | 440 | 469 | 421 |

| Compound | AUC of viability dose-response curve (NOMO1; HPLM + 10% dialyzed FBS) | AUC of viability dose-response curve (NOMO1; RPMI 5 mM glucose + 10% FBS) | AUC of viability dose-response curve (NOMO1; [1]) | AUC of viability dose-response curve (P12-Ichikawa; HPLM + 10% dialyzed FBS) | AUC of viability dose-response curve (P12-Ichikawa; RPMI 5 mM glucose + 10% FBS) | AUC of viability dose-response curve (P12-Ichikawa; [1]) | AUC of viability dose-response curve (SEM cells; HPLM + 10% dialyzed FBS) | AUC of viability dose-response curve (SEM cells; RPMI 5 mM glucose + 10% FBS) | AUC of viability dose-response curve (SEM cells; [1]) |
| --- | --- | --- | --- | --- | --- | --- | --- | --- | --- |
| Cn1cc(-c2ccc3ncc(Cc4ccc5ncccc5c4)n3n2)cn1 | 468 | 477 | 472 | 472 | 474 | 470 | 450 | 452 | 450 |
| O=C(c1ccc(F)cc1)C1CCN(CCn2c(=O)[nH]c3ccccc3c2=O)CC1 | 469 | 457 | 453 | 455 | 448 | 451 | 469 | 474 | 466 |
| CC1OC(OC/2=C(/OC3=C(C(=CC(=C3)O)O)C2=O)C4=CC=C(O)C=C4)C(O)C(OC(C)=O)C1OC(C)=O (centres undefined) | 440 | 430 | 466 | 454 | 455 | 460 | 463 | 367 | 465 |
| CCOc1ccccc1OCCNC(C)Cc1ccc(OC)c([S+](N)(=O)[O-])c1 (centres undefined) | 468 | 461 | 466 | 471 | 462 | 471 | 459 | 462 | 464 |
| N=C(N)c1ccc(OCCCCCOc2ccc(C(=N)N)cc2)cc1 | 441 | 447 | 441 | 467 | 456 | 458 | 457 | 463 | 465 |
| CNC(=O)c1cc(Oc2ccc(NC(=O)Nc3cc(C(C)(C)C)nn3-c3ccc4ncccc4c3)c(F)c2)ccn1 | 433 | 452 | 450 | 464 | 465 | 469 | 375 | 359 | 335 |
| CC1(C)CC(=O)c2c(C(F)(F)F)nn(-c3ccc(C(N)=O)c(NC4CCC(OC(=O)CN)CC4)c3)c2C1 (centres undefined) | 292 | 273 | 281 | 346 | 297 | 308 | 288 | 290 | 276 |
| CN(C)C(=O)COC(=O)Cc1ccc(OC(=O)c2ccc(NC(=N)N)cc2)cc1 | 426 | 469 | 465 | 446 | 462 | 437 | 465 | 458 | 469 |
| COc1ccc(-c2c(-c3ccc(O)cc3O)n[nH]c2C)cc1 | 449 | 467 | 466 | 465 | 464 | 468 | 428 | 405 | 431 |
| Cc1c(OCC(F)(F)F)ccnc1C[S+]([O-])c1nc2ccccc2[nH]1 (centres undefined) | 456 | 469 | 448 | 466 | 459 | 471 | 420 | 475 | 453 |
| COc1ccc2cc(-c3[nH]c(-c4ccc([S+](C)[O-])cc4)nc3-c3ccncc3)ccc2c1 (centres undefined) | 461 | 390 | 435 | 472 | 468 | 464 | 451 | 463 | 460 |
| Cn1cc(-c2ccncc2)c(-c2ccc(OCc3ccc4ccccc4n3)cc2)n1 | 454 | 451 | 463 | 449 | 433 | 440 | 469 | 445 | 465 |
| CCOC(=O)c1ncn2c1CN(C)C(=O)c1cc(F)ccc1-2 | 433 | 432 | 465 | 427 | 432 | 424 | 421 | 420 | 422 |
| CC1=CC2=C(O1)C(=C3OC(=O)\C=C(C)/C3=C2)C | 446 | 466 | 451 | 468 | 469 | 468 | 404 | 453 | 447 |
| CC1=C(C)C2=C(S1)[N]3C(=NN=C3[C@H](CC(=O)OC(C)(C)C)/N=C2/C4=CC=C(Cl)C=C4)C | 292 | 286 | 296 | 311 | 313 | 305 | 249 | 264 | 251 |
| Cc1ccc(F)c(NC(=O)Nc2ccc(-c3cccc4[nH]nc(N)c34)cc2)c1 | 464 | 472 | 471 | 470 | 472 | 470 | 314 | 256 | 296 |
| CC1(C)O[C@H]2CC(=O)OC[C@]23[C@H]2CC[C@@]4(C)[C@H](c5ccoc5)OC(=O)[C@H]5O[C@]54[C@]2(C)C(=O)C[C@@H]13 | 462 | 465 | 461 | 468 | 446 | 469 | 463 | 444 | 438 |
| C[C@@]12OC(=O)[C@@]1(NC(=O)[C@@H]2CCCl)[C@@H](O)[C@H]\3CCC\C=C3 | 243 | 254 | 254 | 256 | 253 | 247 | 183 | 182 | 177 |
| O=C(C1CCCCC1)N1CC(=O)N2CCc3ccccc3C2C1 (centres undefined) | 445 | 466 | 452 | 386 | 385 | 369 | 434 | 407 | 406 |
| CCCn1c(=O)c2[nH]c(-c3cnn(Cc4cccc(C(F)(F)F)c4)c3)nc2n(CC)c1=O | 394 | 443 | 413 | 446 | 388 | 438 | 470 | 467 | 467 |
| Nc1cccc(-c2cc3c(Oc4cccc(O)c4)ncnc3[nH]2)c1 | 445 | 463 | 460 | 423 | 431 | 436 | 414 | 415 | 414 |
| CCCCOc1ccc(C(=O)Nc2ccc(F)cc2F)cc1 | 437 | 420 | 433 | 423 | 422 | 408 | 377 | 383 | 385 |
| NC12CC3CC(CC(C3)C1)C2 | 448 | 470 | 461 | 466 | 466 | 476 | 435 | 401 | 371 |
